{"source": "patent EP0084678B1", "about": "“New compound having analgesic, antiinflammatory and mucoregulating activities, process for its production and relative pharmaceutical compositions” (AUSONIA FARMACEUTICI S.r.l., priority 1982, dated 1983)", "key": {"[1]": {"assay": "Acute toxicity (Litchfield and Wilcoxon method), rat", "settings": "Wistar, in vivo", "text": "(§1) The acute toxicity has been determined in Swiss mouse and in Wistar rat for different administration routes, according to the method of Litchfield J.T. and Wilcoxon [J. Pharm. Exp. Therap. 96, 99―113, (1949)].\n(§2) The results obtained are reported in the following Table I; from the same it can be pointed out how AFP 696 is endowed with a very low acute toxicity."}, "[2]": {"test_system": "cough induced by citric acid aerosol", "assay": "Anti-cough activity, cough induced by citric acid aerosol", "type": "in vivo, rabbits", "settings": "cough strokes", "experimental": "The anti-cough activity of AFP-696 has been assessed after administration by endoperitoneal route (30% in tween) on rabbits of both sexes, weighing […], according to the method of the cough induced by citric acid aerosol administration, and evaluating the mean number of cough strokes in comparison with the same basal values (Boura and coil. - Prog. Brit. Pharmac. Soc. Apr. 1970). As reference standard a group of codeine treated animals at the dose of 12.5 mg/kg has been used."}, "[3]": {"test_system": "writhings by phenylquinone", "assay": "Analgesic activity, writhings by phenylquinone", "type": "in vivo", "settings": "mouse; for % Inhibition in comparison with controls: writhings", "experimental": "The test of writhings by phenylquinone in the mouse has been used. AFP-696 has been administered by oral route at the dose of 500 mg/kg in comparison with acetylsalicylic acid at the dose of […].\nThe two drugs have been administered per os 30 minutes after intraperitoneal injection of phenil- quinone."}, "gastric mucose": {"test_system": "gastric mucose", "assay": "Gastrolesive action", "type": "in vivo", "settings": "rats fasting since 18 hours, 5 hours 30 minutes after treatment", "experimental": "Rats fasting since 18 hours have been treated by oral route with AFP-696 and, for comparison, with acetylsalicylic acid, at the doses hereinafter stated. 5 Hours and 30 minutes after treatments, the animals have been sacrificed and the stomach has been withdrawn for gastric mucose examination."}, "male rabbit": {"test_system": "male rabbit", "assay": "Mucosecretolytic activity (technique of Giraldez et al.)", "type": "in vivo", "settings": "500 mg/kg/os", "text": "The mucosecretolytic activity has been studied in the male rabbit according to the technique of Giraldez, Grass and Bruseghini (Abstr. Comp. Int. Pharm. N. 1086-Paris 1978), by administration by the oral route, comparing AFP-696 with carboxymethylcysteine and sobrerol at the dose hereinafter stated."}, "male Wistar rats": {"test_system": "male Wistar rats", "assay": "Bronchosecretogogue activity (Mawatari technique)", "type": "in vivo, rat", "settings": "500 mg/kg/os, FlNa = Sodium fluoresceine", "text": "The bronchosecretogogue activity has been determined in male Wistar rats by per os administration according to the method of Mawatari [Mawatari H., Kagoshima Daigaku Igaku-Zasshi, 27, 561 (1976)], comparing AFP-696 with carboxymethylcysteine and sobrerol at the doses hereinafter stated."}, "[4]": {"test_system": "subplantar edema induced by carrageenin", "assay": "Antiinflammatory activity, subplantar edema by carrageenin", "type": "in vivo", "settings": "rat; for MEAN LIMB VOLUME AT DIFFERENT HOURS AFTER TREATMENT 0: hour 0; for MEAN LIMB VOLUME AT DIFFERENT HOURS AFTER TREATMENT 1: hour 1; for MEAN LIMB VOLUME AT DIFFERENT HOURS AFTER TREATMENT 2: hour 2; for MEAN LIMB VOLUME AT DIFFERENT HOURS AFTER TREATMENT 3: hour 3; for MEAN LIMB VOLUME AT DIFFERENT HOURS AFTER TREATMENT 4: hour 4; for MEAN LIMB VOLUME AT DIFFERENT HOURS AFTER TREATMENT 5: hour 5; for AREA Absolute value: limb volume over 5 hours", "experimental": "Tests have been performed on the rat, employing the test of the subplantar edema induced by carrageenin. […] and, for comparison, ASA, have been administered by oral route 30 minutes before carrageenin, at the doses hereinafter stated. After edema induction, the animals of each group have been controlled, every 60 minutes for 5 consecutives hours, in order to point out the evolution of the inflammatory process."}, "[5]": {"assay": "Solubility of the isolated product", "type": "physicochemical", "experimental": "To 90 g of ASA in 500 ml of benzene, 120 g of thionyl chloride are added. The mixture is refluxed for three hours. At the end, the benzene is evaporated under reduced pressure to dryness. The acetylsalicyclic acid chloride so obtained is dissolved in 500 ml of anhydrous tetrahydrofuran and added with 80 g of pyridine; to this solution 85 g of sobrerol (di-trans form) are added. The reaction is completed after two hours refluxing. At the end the solvent is evaporated under reduced pressure, the residue is washed with water and extracted with ethyl ether. […] Its structure is confirmed by analytical and spectroscopical data: • Elemental analysis: for C19H24O5 (M.W. = 332.39) • calcd. % C = 68.66; H = 7.28 • found % C = 68.79; H = 7.33. • I.R. Spectrum (liquid film; values of absorption bands are expressed in cm^-1): • stretch 0-H 3550-3400 broad bands • stretch C-H aromatics alifatics 3080-2910 • stretch C = O alifat. ester 1780 • stretch C = O aromat. ester 1730 • stretch C = C 1615 • stretch C(= 0)-O acetate 1145 • stretch C(= 0)-0 arilyc 1255 • H' NMR Spectrum (recorded in CDCI3, internal references TMS; values of chemical shifts are expressed in 6): • 1.2 (d, 6H, 2(CH3)); • 1.8 (s, 3H, =C-CH3); • 1.4-2.2 (m, 6H, CH2-CH-CH2, OH mobile); • 2.3 (s, 3H, CO-CH3); • 5.3 (m, 1H, CH―O―CO); • 5.8 (m, 1H, CH=C-CH3); • 7-7.7 (m, 3H aromatics); • 8 (double d, 1H aromatic). […]"}, "[6]": {"assay": "Acute toxicity (Litchfield and Wilcoxon method), mouse", "settings": "Swiss, in vivo", "text": "as §1, §2"}, "[7]": {"assay": "Pharmacokinetics, plasma and lung levels by gas chromatography", "type": "in vivo", "settings": "rats", "experimental": "Two groups of rats have been treated per os, by gastric tube, with AFP-696 at the dose of 100 mg/kg and acetylsalicylic acid at the dose of 54 mg/kg. At the moment of treatment rats were fasting since 18 hours. Rats have been then sacrificed in groups of 4 at different times: 30 min., 1 h, 2 h, 4 h, 6 h.\nThe concentration both of unchanged products and of their metabolites have been measured by gaschromatography in plasma and in the lung."}}, "data": [{"smiles": "CC(=O)Oc1ccccc1C(=O)OC1CC(C(C)(C)O)CC=C1C", "note": "(stereo not drawn) [AFP-696, 2-acetoxybenzoate of 2-methyl-5-(1-hydroxy-1-methylethyl)-cyclohexen-2-yl]", "values": [{"measurement": "LD50", "setting": "[1]; ip", "value": 1950, "unit": "mg/kg"}, {"measurement": "LD50", "setting": "[1]; oral, os", "value": "> 4000", "unit": "mg/kg"}, {"measurement": "% Inhibition in comparison with controls", "setting": "[2]; 150 mg/kg, endoperitoneal route (30% in tween)", "value": 82.4, "unit": "%"}, {"measurement": "Mean No of writhings", "setting": "[3]; 500 mg/kg os", "value": "1.3 ± 0.9"}, {"measurement": "No animals with writhings", "setting": "[3]; 500 mg/kg os", "value": "3/10"}, {"measurement": "% Inhibition in comparison with controls", "setting": "[3]; 500 mg/kg os", "value": 89.8, "unit": "%"}, {"measurement": "Mean ulcers' size", "setting": "gastric mucose; 150 mg/kg/os", "value": "0.7 ± 0.4", "unit": "mm"}, {"measurement": "% Increase of secretion in comparison with controls", "setting": "male rabbit", "value": 39.5, "unit": "%"}, {"measurement": "% Increase of FlNa (*) in comparison with controls", "setting": "male Wistar rats", "value": 63.6, "unit": "%"}, {"measurement": "AREA % Inhibition in comparison with controls", "setting": "[4]; 500 mg/kg os", "value": 33.0, "unit": "%"}, {"measurement": "MEAN LIMB VOLUME AT DIFFERENT HOURS AFTER TREATMENT 0", "setting": "[4]; 500 mg/kg os", "value": 24.1}, {"measurement": "MEAN LIMB VOLUME AT DIFFERENT HOURS AFTER TREATMENT 1", "setting": "[4]; 500 mg/kg os", "value": 28.1}, {"measurement": "MEAN LIMB VOLUME AT DIFFERENT HOURS AFTER TREATMENT 2", "setting": "[4]; 500 mg/kg os", "value": 31.4}, {"measurement": "MEAN LIMB VOLUME AT DIFFERENT HOURS AFTER TREATMENT 3", "setting": "[4]; 500 mg/kg os", "value": 37.4}, {"measurement": "MEAN LIMB VOLUME AT DIFFERENT HOURS AFTER TREATMENT 4", "setting": "[4]; 500 mg/kg os", "value": 38.1}, {"measurement": "MEAN LIMB VOLUME AT DIFFERENT HOURS AFTER TREATMENT 5", "setting": "[4]; 500 mg/kg os", "value": 38.1}, {"measurement": "AREA Absolute value", "setting": "[4]; 500 mg/kg os", "value": 183.0}, {"measurement": "solubility in organic solvents", "setting": "[5]; organic solvents", "value": "easily soluble"}, {"measurement": "solubility in water", "setting": "[5]; water", "value": "slightly soluble"}, {"measurement": "LD50", "setting": "[6]; ip", "value": 1600, "unit": "mg/kg"}, {"measurement": "LD50", "setting": "[6]; oral, os", "value": 3500, "unit": "mg/kg"}, {"measurement": "pulmonary levels of salicylic acid", "setting": "[7]; 100 mg/kg per os vs acetylsalicylic acid 54 mg/kg, lung", "value": "higher"}, {"measurement": "plasma levels of acetylsalicylic acid in comparison with the administration of acetylsalicylic acid at equimolar doses", "setting": "[7]; 100 mg/kg per os vs acetylsalicylic acid 54 mg/kg, more marked in the first two hours", "value": "higher"}, {"measurement": "unchanged AFP-696 in plasma", "setting": "[7]; 100 mg/kg per os, at 30 minutes and in some instance also at 1 hour", "value": "found in plasma"}]}, {"smiles": "CC(=O)Oc1ccccc1C(=O)O", "note": "[Acetylsalicylic acid, acetylsalicylic acid, reference compound]", "values": [{"measurement": "Mean No of writhings", "setting": "[3]; 250 mg/kg os", "value": "0.6 ± 0.5"}, {"measurement": "No animals with writhings", "setting": "[3]; 250 mg/kg os", "value": "1/10"}, {"measurement": "% Inhibition in comparison with controls", "setting": "[3]; 250 mg/kg os", "value": 95.3, "unit": "%"}, {"measurement": "Mean ulcers' size", "setting": "gastric mucose; 100 mg/kg/os", "value": "3.9 ± 1.2", "unit": "mm"}, {"measurement": "AREA % Inhibition in comparison with controls", "setting": "[4]; 250 mg/kg os", "value": 33.6, "unit": "%"}, {"measurement": "MEAN LIMB VOLUME AT DIFFERENT HOURS AFTER TREATMENT 0", "setting": "[4]; 250 mg/kg os", "value": 24.3}, {"measurement": "MEAN LIMB VOLUME AT DIFFERENT HOURS AFTER TREATMENT 1", "setting": "[4]; 250 mg/kg os", "value": 27.4}, {"measurement": "MEAN LIMB VOLUME AT DIFFERENT HOURS AFTER TREATMENT 2", "setting": "[4]; 250 mg/kg os", "value": 32.2}, {"measurement": "MEAN LIMB VOLUME AT DIFFERENT HOURS AFTER TREATMENT 3", "setting": "[4]; 250 mg/kg os", "value": 37.8}, {"measurement": "MEAN LIMB VOLUME AT DIFFERENT HOURS AFTER TREATMENT 4", "setting": "[4]; 250 mg/kg os", "value": 38.6}, {"measurement": "MEAN LIMB VOLUME AT DIFFERENT HOURS AFTER TREATMENT 5", "setting": "[4]; 250 mg/kg os", "value": 38.6}, {"measurement": "AREA Absolute value", "setting": "[4]; 250 mg/kg os", "value": 181.28}]}, {"smiles": "COc1ccc2c3c1O[C@H]1[C@@H](O)C=C[C@H]4[C@@H](C2)N(C)CC[C@@]341", "note": "[Codeine, codeine, reference compound]", "values": [{"measurement": "% Inhibition in comparison with controls", "setting": "[2]; 12.5 mg/kg", "value": 76.7, "unit": "%"}]}, {"smiles": "CC1=CCC(C(C)(C)O)CC1O", "note": "(stereo not drawn) [Sobrerol, 2-methyl-5-(1-hydroxy-1-methyl-ethyl)-2-cyclohexen-1-ol, reference compound]", "values": [{"measurement": "% Increase of secretion in comparison with controls", "setting": "male rabbit", "value": 36.8, "unit": "%"}, {"measurement": "% Increase of FlNa (*) in comparison with controls", "setting": "male Wistar rats", "value": 33.4, "unit": "%"}]}]}
